pIC50: −log10 of the molar value. Where two headings read alike, the source gives them in different places.
Columns and labels:
[1] = test system: Rabbit isolated mesenteric artery; test: Rabbit isolated mesenteric artery: inhibition of contractions due to 30 and 90 mM KCl; design: species or system rabbit (male New Zealand White)
Protocol: (2) Rabbit isolated mesenteric artery. Mesenteric arteries (3 mm rings) were removed from male New Zealand White rabbits and mounted, at a resting tension of 1.5-2.0 g, in a 10 ml organ bath containing a Ringer solution, at 37° C., of the following composition (mM): NaCl 120.8; KCl 5.9; CaCl2 2.5; MgCl2 1.2; HEPES 5.8; glucose 11.5. The bathing solution was bubbled with a 95% oxygen and 5% carbon dioxide mixture. Each preparation was allowed 1-11/2 h to equilibrate before the addition of either 30 or 90 mM KCl to contract the tissue. The ability of test compound to relax the sustained contraction due to KCl was determined by assessing the % reduction (mean±s.e.m.; 4-9 tissues) produced by varying concentrations of test compound.
IC50 is the concentration of compound 1 halving the contraction due to KCl; parenthesis indicate 95% fiducial limits.

[2] = test system: hypoxic skeletal muscle; test: Effect of compounds on skeletal muscle oxygen tension in the rat (with reduction in mean arterial blood pressure); format: in vivo; settings: for CHANGE IN PO2 (average change in muscle PO2 produced by treatment) / REDUCTION IN MABP (Mean Arterial Blood Pressure): mean±S.D., 6 rats/treatment; for oxygen tension (PO2) in hypoxic skeletal muscle: at approximately a hypotensive dose
Text: Values are mean±S.D.; 6 rats/treatment
MABP=Mean Arterial Blood Pressure
Change in PO2 =the average change in muscle PO2 produced by treatment

[3] = test system: Rat isolated portal vein; test: Rat isolated portal vein: inhibition of spontaneous contractions and of contractions due to added calcium; design: species or system rat (male Sprague Dawley); settings: for pIC50: Rattus norvegicus, 0.25 h, 15 min contact time
Protocol: (1) Rat isolated portal vein. Male Sprague Dawley rats (250-350 g) were killed by cervical dislocation. Portal veins (2-3 cm in length) were set up under 0.8-1 g tension in a 10 ml organ bath containing Krebs-Henseleit solution, at 37° C., of the following composition (mM): NaCl 118, NaHCO3 25, glucose 5, KH2 PO4 1.18, KCl 4.69, MgSO4 0.59, CaCl2 ·H2 O 1.87. The tissue was aerated with a 95% oxygen and 5% carbon dioxide mixture. Isometric tension was recorded using a Devices strain gauge and recorder. Each preparation was allowed 1h to equilibrate before the addition of test compound. The ability of a compound to inhibit the contractions due to added calcium (3 mM CaCl2) was determined in tissues bathed in Krebs-Henseleit solution containing 0.05 mM CaCl2 (in order to reduce spontaneous contractions). Then percentage inhibition (mean±s.e.m.; 6-9 tissues) of the amplitude of the spontaneous contractions, and contractions due to added calcium, was determined after 15 min contact time with test compound.
IC50 is concentration of compound reducing contractions by 50%; parenthesis indicate 95% fiducial limits.

SMILES	antagonism of contractions due to a partially / fully depolarising concentration of potassium ([1]; 30 mM (partially) and 90 mM (fully depolarising) KCl)	pIC50 ([1]; Oryctolagus cuniculus, read-out: IC50 90 mM KCl (concentration halving the contraction due to KCl))	effect against a high concentration of KCl ([1]; high KCl (90 mM))	CHANGE IN PO2 (average change in muscle PO2 produced by treatment) ([2]; 0.3 mg/kg intraduodenally)	REDUCTION IN MABP (Mean Arterial Blood Pressure) ([2]; 0.3 mg/kg intraduodenally) [MMHG]	oxygen tension (PO2) in hypoxic skeletal muscle [2]	pIC50 ([3]; contractions due to added calcium (3 mM CaCl2), 0.05 mM CaCl2 Krebs-Henseleit, 95% fiducial limits (0.87-3.5), read-out: IC50 Ca^2+ (3 mM) (concentration reducing contractions by 50%))	pIC50 ([3]; spontaneous contractions, 95% fiducial limits (0.67-7.8), read-out: IC50 Spontaneous (concentration reducing contractions by 50%))	inhibitor of spontaneous contractions and of those due to added calcium (comparison in words) ([3]; spontaneous versus added calcium contractions)	CHANGE IN PO2 (average change in muscle PO2 produced by treatment) ([2]; 1.0 mg/kg intraduodenally)	REDUCTION IN MABP (Mean Arterial Blood Pressure) ([2]; 1.0 mg/kg intraduodenally) [MMHG]
CC1(C)Oc2ccc(C#N)cc2[C@@H](N2CCCC2=O)[C@@H]1O (relative stereo) [Compound 1, 6-cyano-3,4-dihydro-2,2-dimethyl-trans-4-(2-oxo-1-pyrrolidinyl)-2H-benzo[b]pyran-3-ol]	antagonises the contractions due to a partially, but not a fully, depolarising concentration of potassium	< 5.00	effectiveness	+8.7 ± 2.3 TORR	44 ± 4	large increase	6.82	6.92	equipotent	–	–
CCN(C(C)=O)[C@@H]1c2cc(C#N)ccc2OC(C)(C)[C@H]1O (relative stereo) [Compound 2, trans-4-N-acetylethylamino-6-cyano-3,4-dihydro-2,2-dimethyl-2H-benzo[b]pyran-3-ol]	–	–	–	–	–	large increase	–	–	–	+8.2 ± 3.7 TORR	36 ± 4
